Here are results for five substances from patent US20250066769A1, “METHODS OF SCREENING AND TREATING FRAGILE X SYNDROME” (YISSUM RESEARCH DEVELOPMENT COMPANY OF THE HEBREW …, priority 2021, published 2025).

For data set [1], the system named is FMR1 expression in FXS-iPSCs. In words: RT-PCR analysis of FMR1 expression in FXS-iPSCs. In kind it is cell-based, human. The conditions noted are these: for FMR1 transcription levels (RT-PCR): lentiviral Cas9 and two sgRNAs per candidate gene, vs basal level. An excerpt:
Cell lines: Throughout the study the following cell lines were used: The FXS-iPSCs cell line A52. Haploid hpESCs-hPES10. CSES7 and CSES9 hESCs and their derivatives were used as a reference for wild type expression. 293T cells were used for the construction of lentiviral constructs.
RNA isolation and reverse transcription: Total RNA was isolated using NucleoSpin RNA Plus kit (Macherey-Nagel) and reverse transcribed using the qScript® cDNA Synthesis Kit. Quantitative real time PCR (qRT-PCR) was performed using SYBR Green qPCR Supermix (Applied Biosystems) and analyzed with the 7300 real-time PCR system (Applied biosystems). FMR1 expression was assessed using specific primers, which amplified a 147 bp product spanning exons 5-6 of FMR1. GAPDH was used for normalization.
DNMT1 disruption assay: As human pluripotent stem cells require DNA methylation for their viability, heterogenous DNMT1-mutant populations of FXS-iPSCs were generated by infecting the cells with a lentiCRISPR v2 lentiviral vector containing an sgRNA that targets the open reading frame of DNMT1. The sgRNA sequence was cloned into the lentiCRISPR v2 plasmid and transformed into Stb13 chemically competent bacteria. Following plasmid isolation, 293T cells were transfected with sgRNA-containing lentiCRISPR V2, psPAX2, and pCMV-VSV-G plasmids at a ratio of 13.3:10:6.6, respectively, in the presence of polyethylenimine ‘Max’ (Polysciences). Lentiviral particle-containing supernatant was collected ˜65 hours after transfection and filtered using […] filters. For transduction, FXS-iPSCs were trypsinized, centrifuged, and suspended in embryonic stem cell media supplemented with 10 μM ROCK inhibitor (Y27632) and 8 μg/ml polybrene (Sigma). The viruses were added to the cell suspension, and the cells were plated on MEFs overnight. After ˜36 hours, the cells' medium was replaced with puromycin-containing medium ([…], Sigma). After 2-14 days selection with puromycin, cells were harvested for RNA extraction. To confirm DNMT1 mutagenesis in the transduced cells, qRT-PCR primers that were designed to have their 3′ ends around the Cas9 cut-site of DNMT1 were used to analyze the abundance of wild-type copies to DNMT1 transcripts.
Generation of gene knockouts: Ten candidate genes were targeted using a lentiviral construct containing Cas9 and a specific sgRNA (Table 2). Two sgRNAs were used to target each candidate gene. Each sgRNA sequence was inserted into a separate lentiCRISPR v2 vector (Addgene cat. No. 52961). As a control, a lentiCRISPR v2 vector without any sgRNA (empty vector) was used. Lentiviruses were produced using 293T cells cultured in 10 cm plates using transfection with the sgRNA-containing-lentiCRISPR v2 construct, psPAX2 (Addgene cat. No. 12260) and pCMV-VSV-G (Addgene cat. No. 8454) at a ratio of 5.32:4:2.64 ratio, in the presence of polyethylenimine “Max” (PEI-Max) (Polysciences) at a 1:2 ratio of DNA to PEI-Max. After 24 hours, the medium was exchanged with standard hESC medium, which was harvested 60-65 hours following transfection, centrifuged, and filtered through 0.45 μm cellulose acetate filters (Millipore). The filtered supernatant was frozen in aliquots at −70° C. For transduction, FXS-iPSCs or haploid human ESCs were trypsinized with TrypLE™ Select, centrifuged, and resuspended in hESC medium supplemented with 8 μg ml-1 polybrene (Sigma) and 10 μM ROCK inhibitor (Y27632). Thawed or fresh viruses were added to the cell suspension, followed by plating the cells on feeder layer MEFs. […]

Data set [2] has as its system methylated pFMR1-(240) CGG-EGFP construct in haploid hESCs. In words: methylated pFMR1-(240) CGG-EGFP reporter transfection in mutant haploid hESCs, flow cytometry. The conditions noted are these: Cas9 + two sgRNAs per gene, compared to Cas9 without sgRNA. In kind it is cell-based, human. On the procedure:
In vitro DNA methylation: pFMR1-n (CGG)-eGFP construct was methylated using an M.SssI CpG methyltransferase (NEB) according to manufacturer's recommendations. SAM concentration was adjusted to 640 μM. DNA was extracted using ethanol precipitation.
Library transfection: 10 μM ROCK inhibitor (Y27632) was added 1 hour prior to trypsinization and transfection. Library cells were harvested using TrypLE™ Select Enzyme solution (Thermo Fisher Scientific, Cat #12563029) in a single cell state. Following the first centrifugation, cells were re-suspended twice with DMEM/F12 and centrifuged again before incubation with the plasmid DNA. Transfection of the methylated pFMR1-CGG (240)-EGFP construct was performed using the Xtreme Gene9 reagent (Roche), using standard conditions. 48 hours following transfection, cells were washed with PBS, harvested using TrypLE™ Select, resuspended in PBS supplemented with 15% fetal bovine serum (FBS) and filtered through a 70-μm cell strainer (Corning) and sorted using BD FACDAria III. Transfection efficiency was assessed using the simultaneous transfection of control haploid hESCs with an unmethylated pFMR1-CGG (240)-EGFP construct.
Generation of gene knockouts: Ten candidate genes were targeted using a lentiviral construct containing Cas9 and a specific sgRNA (Table 2). Two sgRNAs were used to target each candidate gene. Each sgRNA sequence was inserted into a separate lentiCRISPR v2 vector (Addgene cat. No. 52961). As a control, a lentiCRISPR v2 vector without any sgRNA (empty vector) was used. Lentiviruses were produced using 293T cells cultured in 10 cm plates using transfection with the sgRNA-containing-lentiCRISPR v2 construct, psPAX2 (Addgene cat. No. 12260) and pCMV-VSV-G (Addgene cat. No. 8454) at a ratio of 5.32:4:2.64 ratio, in the presence of polyethylenimine “Max” (PEI-Max) (Polysciences) at a 1:2 ratio of DNA to PEI-Max. After 24 hours, the medium was exchanged with standard hESC medium, which was harvested 60-65 hours following transfection, centrifuged, and filtered through 0.45 μm cellulose acetate filters (Millipore). […]
Background: Flow cytometry measures light scatter and fluorescence of single cells or particles in a stream.

Turning to “5′-aza-2′-deoxycytidine [5-azadC, reference compound]”, the “FMR1 expression (RT-PCR)” value in data set [1] (5 μM, 4 days) is “reactivation of FMR1 expression”.
Regarding “C6orf57: lentiviral Cas9 constructs with two sgRNAs targeting C6orf57 (guide 1 GAGACCCAGCTAAGCAACCA; guide 2 TCCCAATCTCCATATCGGGT; expressed or natural sequence; listed as Homo sapiens)”, the “FMR1 transcription levels (RT-PCR)” value in data set [1] is on record as “some increase above basal FMR1 transcription levels”. In addition, the “methylated construct expression (relative GFP fluorescence)” value in data set [2] is “highest levels of methylated construct expression”.
In the case of “SMARCD1: lentiviral Cas9 constructs with two sgRNAs targeting SMARCD1 (guide 1 GGAGCCGGGCCCATTCGCAC; guide 2 GCCACTACCCAGGAGACCGA; expressed or natural sequence; listed as Homo sapiens)”, the “FMR1 transcription levels (RT-PCR)” value in data set [1] is on record as “some increase above basal FMR1 transcription levels”. In addition, in data set [2], the “methylated construct expression (relative GFP fluorescence)” value was “highest levels of methylated construct expression”.
As for “ZNF217: lentiviral Cas9 constructs with two sgRNAs targeting ZNF217 (guide 1 GTGGTGAACGGATCGAGCTG; guide 2 TCTGGATGAAAATGGAGCCG; expressed or natural sequence; listed as Homo sapiens)”, in data set [1], the “FMR1 transcription levels (RT-PCR)” value was “some increase above basal FMR1 transcription levels”. For the same substance, the “methylated construct expression (relative GFP fluorescence)” value in data set [2] is on record as “highest levels of methylated construct expression”.
For the substance “sgRNA targeting DNMT1: lentiCRISPR v2 vector with Cas9 and sgRNA GAGGCCAGAAGGAGGAACCG targeting DNMT1 (listed as Homo sapiens)”, the “FMR1 expression (RT-PCR)” value in data set [1] (lentiviral sgRNA + Cas9, collected 7-14 days after start of selection, vs control FXS-iPSCs) is listed as “reactivation of FMR1 expression”.
